From ChEMBL document CHEMBL3044636, “Effectiveness of five insecticides for the control of adults and young stages of Cacopsylla melanoneura (Förster) (Hemiptera: Psyllidae) in a semi-field trial” (2010)
Calls of active or inactive are those of the source. The calls are words filed in the database; no cut-off is given here.

Key:
Cacopsylla melanoneura [1] = experiment: Insecticidal activity against adult of Cacopsylla melanoneura in apple plant assessed as reduction of progeny per female at 135 g/ha treated for 1 hr measured after 7 days; type: functional, organism-based
Cacopsylla melanoneura [2] = experiment: Insecticidal activity against adult of Cacopsylla melanoneura in apple plant assessed as overwintered female mortality at 135 g/ha treated for 1 hr measured after 1 day relative to control; type: functional
Cacopsylla melanoneura [3] = experiment: Insecticidal activity against adult of Cacopsylla melanoneura in apple plant assessed as overwintered female mortality at 135 g/ha treated for 1 hr measured after 3 days relative to control; type: functional
Cacopsylla melanoneura [4] = experiment: Insecticidal activity against adult of Cacopsylla melanoneura in apple plant assessed as reduction of progeny per female at 135 g/ha treated for 7 days measured after 7 days; type: functional, organism-based
Cacopsylla melanoneura [5] = experiment: Insecticidal activity against adult of Cacopsylla melanoneura in apple plant assessed as overwintered female mortality at 135 g/ha treated for 7 days measured after 1 day relative to control; type: functional
Cacopsylla melanoneura [6] = experiment: Insecticidal activity against adult of Cacopsylla melanoneura in apple plant assessed as reduction of progeny per female at 135 g/ha treated for 14 days measured after 7 days; type: functional, organism-based
Cacopsylla melanoneura [7] = experiment: Insecticidal activity against young stage of Cacopsylla melanoneura in apple plant assessed as mortality at 135 g/ha treated for 1 hr measured after 7 days relative to control; type: functional
Cacopsylla melanoneura [8] = experiment: Insecticidal activity against adult of Cacopsylla melanoneura in apple plant assessed as overwintered female mortality at 135 g/ha treated for 14 days measured after 3 days relative to control; type: functional
Cacopsylla melanoneura [9] = experiment: Insecticidal activity against young stage of Cacopsylla melanoneura in apple plant assessed as mortality at 135 g/ha treated for 14 days measured after 7 days relative to control; type: functional
Cacopsylla melanoneura [10] = experiment: Insecticidal activity against adult of Cacopsylla melanoneura in apple plant assessed as overwintered female mortality at 135 g/ha treated for 7 days measured after 3 days relative to control; type: functional
Cacopsylla melanoneura [11] = experiment: Insecticidal activity against adult of Cacopsylla melanoneura in apple plant assessed as overwintered female mortality at 135 g/ha treated for 14 days measured after 1 day relative to control; type: functional
Cacopsylla melanoneura [12] = experiment: Insecticidal activity against young stage of Cacopsylla melanoneura in apple plant assessed as mortality at 135 g/ha treated for 7 days measured after 7 days relative to control; type: functional
Cacopsylla melanoneura [13] = experiment: Insecticidal activity against adult of Cacopsylla melanoneura in apple plant assessed as overwintered female mortality at 187.5 g/ha treated for 1 hr measured after 1 day relative to control; type: functional
Cacopsylla melanoneura [14] = experiment: Insecticidal activity against adult of Cacopsylla melanoneura in apple plant assessed as reduction of progeny per female at 187.5 g/ha treated for 14 days measured after 7 days; type: functional, organism-based
Cacopsylla melanoneura [15] = experiment: Insecticidal activity against adult of Cacopsylla melanoneura in apple plant assessed as overwintered female mortality at 187.5 g/ha treated for 14 days measured after 1 day relative to control; type: functional
Cacopsylla melanoneura [16] = experiment: Insecticidal activity against adult of Cacopsylla melanoneura in apple plant assessed as overwintered female mortality at 187.5 g/ha treated for 1 hr measured after 3 days relative to control; type: functional
Cacopsylla melanoneura [17] = experiment: Insecticidal activity against adult of Cacopsylla melanoneura in apple plant assessed as overwintered female mortality at 187.5 g/ha treated for 7 days measured after 1 day relative to control; type: functional
Cacopsylla melanoneura [18] = experiment: Insecticidal activity against young stage of Cacopsylla melanoneura in apple plant assessed as mortality at 187.5 g/ha treated for 14 days measured after 7 days relative to control; type: functional
Cacopsylla melanoneura [19] = experiment: Insecticidal activity against adult of Cacopsylla melanoneura in apple plant assessed as overwintered female mortality at 187.5 g/ha treated for 14 days measured after 3 days relative to control; type: functional
Cacopsylla melanoneura [20] = experiment: Insecticidal activity against adult of Cacopsylla melanoneura in apple plant assessed as overwintered female mortality at 187.5 g/ha treated for 7 days measured after 3 days relative to control; type: functional
Cacopsylla melanoneura [21] = experiment: Insecticidal activity against young stage of Cacopsylla melanoneura in apple plant assessed as mortality at 187.5 g/ha treated for 7 days measured after 7 days relative to control; type: functional
Cacopsylla melanoneura [22] = experiment: Insecticidal activity against young stage of Cacopsylla melanoneura in apple plant assessed as mortality at 187.5 g/ha treated for 1 hr measured after 7 days relative to control; type: functional
Cacopsylla melanoneura [23] = experiment: Insecticidal activity against adult of Cacopsylla melanoneura in apple plant assessed as reduction of progeny per female at 187.5 g/ha treated for 1 hr measured after 7 days; type: functional, organism-based
Cacopsylla melanoneura [24] = experiment: Insecticidal activity against adult of Cacopsylla melanoneura in apple plant assessed as reduction of progeny per female at 187.5 g/ha treated for 7 days measured after 7 days; type: functional, organism-based

## CCOc1ccc(C(C)(C)COCc2cccc(Oc3ccccc3)c2)cc1 [ETOFENPROX]
Cacopsylla melanoneura [1]
  Activity: Active
Cacopsylla melanoneura [2]
  Activity: 93.3%
Cacopsylla melanoneura [3]
  Activity: 100%
Cacopsylla melanoneura [4]
  Activity: Active
Cacopsylla melanoneura [5]
  Activity: 93.3%
Cacopsylla melanoneura [6]
  Activity: Active
Cacopsylla melanoneura [7]
  Activity: 98.3%
Cacopsylla melanoneura [8]
  Activity: 100%
Cacopsylla melanoneura [9]
  Activity: 100%
Cacopsylla melanoneura [10]
  Activity: 93.3%
Cacopsylla melanoneura [11]
  Activity: 100%
Cacopsylla melanoneura [12]
  Activity: 100%

## CCOC(=O)NCCOc1ccc(Oc2ccccc2)cc1 [PHENOXYCARB]
Cacopsylla melanoneura [13]
  Activity: 3.3%
Cacopsylla melanoneura [14]
  Activity: Active
Cacopsylla melanoneura [15]
  Activity: 23.3%
Cacopsylla melanoneura [16]
  Activity: 16.7%
Cacopsylla melanoneura [17]
  Activity: 40%
Cacopsylla melanoneura [18]
  Activity: 100%
Cacopsylla melanoneura [19]
  Activity: 53.3%
Cacopsylla melanoneura [20]
  Activity: 60%
Cacopsylla melanoneura [21]
  Activity: 91.7%
Cacopsylla melanoneura [22]
  Activity: 93.3%
Cacopsylla melanoneura [23]
  Activity: Active
Cacopsylla melanoneura [24]
  Activity: Active
